Experiments:
[1] = tested on: Hepatitis C virus; assay: Antiviral activity against HCV by replicon assay; format: functional, organism-based, Hepacivirus hominis
[2] = Cytotoxicity against human U-87 MG cells measured after 3 days by Celltiter-glo assay; format: functional, U-87MG ATCC; conditions: 72 h, time 3 day

SMILES | EC50 [1] [µM] | CC50 [2] [µM]
C[C@@]1(F)[C@H](O)[C@@H](CO)S[C@@H]1n1ccc(N)nc1=O | > 100 | 
Nc1ccn([C@@H]2S[C@H](CO)[C@@H](O)C2(F)F)c(=O)n1 | 22.5 | 
CC(C)OC(=O)[C@@H](C)N[P@](=O)(OC[C@H]1S[C@@H](n2ccc(=O)[nH]c2=O)[C@](C)(F)[C@@H]1O)Oc1ccccc1 | 2.99 | 
Nc1ccn([C@H]2[C@H](O)[C@H](O)[C@@H](CO)[S+]2[O-])c(=O)n1 (stereo not given in full) | > 100 | 
C[C@@]1(F)[C@H](O)[C@@H](CO)S[C@H]1n1ccc(N)nc1=O | > 100 | 
C[C@@]1(F)[C@H](O)[C@@H](CO)S[C@H]1n1ccc(=O)[nH]c1=O | > 100 | 
C[C@@]1(F)[C@H](O)[C@@H](CO)S[C@@H]1n1ccc(=O)[nH]c1=O | > 100 | 
Nc1ccn([C@@H]2[S+]([O-])[C@H](CO)[C@@H](O)C2(F)F)c(=O)n1 (mixture of isomers) | 21.8 | 
Nc1ccn([C@H]2[C@@H](O)[C@H](O)[C@@H](CO)[S+]2[O-])c(=O)n1 (mixture of isomers) | > 100 | 
O=c1ccn([C@@H]2O[C@H](CO)[C@@H](O)[C@@H]2O)c(=O)[nH]1 [ARAURIDINE] | > 100 | 
Nc1ccn([C@@H]2O[C@H](CO)[C@@H](O)[C@@H]2O)c(=O)n1 [CYTARABINE] | 0.16 | 0.19
Nc1ccn([C@@H]2O[C@H](CO)[C@@H](O)[C@H]2O)c(=O)n1 [CYTIDINE] | 50 | 
CC(C)OC(=O)[C@H](C)N[P@](=O)(OC[C@H]1O[C@@H](n2ccc(=O)[nH]c2=O)[C@](C)(F)[C@@H]1O)Oc1ccccc1 [SOFOSBUVIR] | 0.03 | 
O=c1ccn([C@@H]2O[C@H](CO)[C@@H](O)[C@H]2O)c(=O)[nH]1 [URIDINE] | 65.9 | 

— ChEMBL document CHEMBL5131483, “Design, chemical synthesis and antiviral evaluation of 2'-deoxy-2'-fluoro-2'-C-methyl-4'-thionucleosides” (Bioorg Med Chem Lett, 2022)
